Assay results from publication PMC8836234, “Salicylic Acid Is Required for Broad-Spectrum Disease Resistance in Rice” (International Journal of Molecular Sciences, 2022).

T1: OsSAH3 (Oryza sativa, UniProt Q7XUN0)
T1 construct: gene Os04g0581100; recombinant from E. coli BL21 (DE3), modified pGEX vector (GST purification), 3 x Myc at C-terminus; wild type has F136, R138, I289, P292; gene on chromosome 4, tail-to-tail with OsSAH2
T1 sequence (Q7XUN0 1-352): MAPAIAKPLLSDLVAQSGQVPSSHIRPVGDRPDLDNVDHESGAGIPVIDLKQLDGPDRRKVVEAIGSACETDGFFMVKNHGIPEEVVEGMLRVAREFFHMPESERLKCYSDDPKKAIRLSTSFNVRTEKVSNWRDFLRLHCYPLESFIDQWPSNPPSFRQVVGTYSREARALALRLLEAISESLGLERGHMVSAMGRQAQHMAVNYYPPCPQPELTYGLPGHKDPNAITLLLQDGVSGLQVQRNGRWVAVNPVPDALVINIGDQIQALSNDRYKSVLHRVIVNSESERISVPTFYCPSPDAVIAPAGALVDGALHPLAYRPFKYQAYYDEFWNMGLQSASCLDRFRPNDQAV

T2: OsSAH4 (Oryza sativa, UniProt Q8W2X5)
T2 construct: gene F3H-2; recombinant from E. coli BL21 (DE3), modified pGEX vector (GST purification), 3 x Myc at C-terminus
T2 sequence (Q8W2X5 1-342): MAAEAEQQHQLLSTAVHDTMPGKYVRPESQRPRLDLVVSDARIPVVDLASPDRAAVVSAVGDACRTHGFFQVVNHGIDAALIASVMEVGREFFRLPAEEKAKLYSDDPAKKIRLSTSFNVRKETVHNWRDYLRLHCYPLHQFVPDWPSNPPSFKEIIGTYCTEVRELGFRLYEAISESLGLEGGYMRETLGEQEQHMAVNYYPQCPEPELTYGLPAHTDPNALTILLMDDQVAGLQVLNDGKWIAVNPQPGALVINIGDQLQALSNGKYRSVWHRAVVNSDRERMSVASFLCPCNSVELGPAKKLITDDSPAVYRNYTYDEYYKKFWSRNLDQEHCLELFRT

T3: DMR6 (Arabidopsis thaliana, UniProt Q9FLV0)
T3 construct: recombinant from E. coli BL21 (DE3), modified pGEX vector (GST purification), 3 x Myc at C-terminus; wild type has Y126, A283
T3 sequence (Q9FLV0 1-341): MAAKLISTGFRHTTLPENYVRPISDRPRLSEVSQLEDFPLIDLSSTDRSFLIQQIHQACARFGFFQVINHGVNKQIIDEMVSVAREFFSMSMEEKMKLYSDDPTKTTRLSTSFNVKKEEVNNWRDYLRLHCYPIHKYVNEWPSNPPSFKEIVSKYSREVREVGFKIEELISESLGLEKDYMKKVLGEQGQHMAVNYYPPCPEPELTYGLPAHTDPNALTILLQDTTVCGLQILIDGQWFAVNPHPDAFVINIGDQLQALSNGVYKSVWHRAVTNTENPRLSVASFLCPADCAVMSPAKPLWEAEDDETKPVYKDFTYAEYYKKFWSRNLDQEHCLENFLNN

T4: OsSAH2 (Oryza sativa, UniProt B9FC47, Y127F)
T4 construct: gene Os04g0581000; recombinant from E. coli BL21 (DE3), modified pGEX vector (GST purification), 3 x Myc at C-terminus; wild type has Y127, M282, A285; gene on chromosome 4, tail-to-tail with OsSAH3
T4 sequence (B9FC47 1-340 Y127F): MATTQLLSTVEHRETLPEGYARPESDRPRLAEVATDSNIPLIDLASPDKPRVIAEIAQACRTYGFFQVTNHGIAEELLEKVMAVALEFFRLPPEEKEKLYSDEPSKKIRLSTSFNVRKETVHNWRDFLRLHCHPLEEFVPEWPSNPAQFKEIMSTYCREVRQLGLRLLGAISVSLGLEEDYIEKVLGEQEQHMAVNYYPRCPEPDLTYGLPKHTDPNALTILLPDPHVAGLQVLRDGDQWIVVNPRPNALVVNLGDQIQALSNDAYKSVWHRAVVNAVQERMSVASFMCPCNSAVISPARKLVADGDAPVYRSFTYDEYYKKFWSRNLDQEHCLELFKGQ

T5: OsSAH2 (Oryza sativa, UniProt B9FC47)
T5 construct: gene Os04g0581000; recombinant from E. coli BL21 (DE3), modified pGEX vector (GST purification), 3 x Myc at C-terminus; wild type has Y127, M282, A285; gene on chromosome 4, tail-to-tail with OsSAH3
T5 sequence (B9FC47 1-340): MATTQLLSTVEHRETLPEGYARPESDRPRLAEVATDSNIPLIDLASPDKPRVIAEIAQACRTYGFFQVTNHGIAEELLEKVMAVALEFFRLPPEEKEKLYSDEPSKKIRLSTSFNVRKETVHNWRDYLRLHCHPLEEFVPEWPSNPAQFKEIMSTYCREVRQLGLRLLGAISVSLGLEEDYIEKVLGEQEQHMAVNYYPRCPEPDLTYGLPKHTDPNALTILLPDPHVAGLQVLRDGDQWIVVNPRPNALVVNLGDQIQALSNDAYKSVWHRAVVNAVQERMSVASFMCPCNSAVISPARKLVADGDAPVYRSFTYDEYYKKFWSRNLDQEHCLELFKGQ

T6: OsSAH1 (Oryza sativa, UniProt Q10SI2)
T6 construct: gene Os03g0122300; recombinant from E. coli BL21 (DE3), modified pGEX vector (GST purification), 3 x Myc at C-terminus
T6 sequence (Q10SI2 1-342): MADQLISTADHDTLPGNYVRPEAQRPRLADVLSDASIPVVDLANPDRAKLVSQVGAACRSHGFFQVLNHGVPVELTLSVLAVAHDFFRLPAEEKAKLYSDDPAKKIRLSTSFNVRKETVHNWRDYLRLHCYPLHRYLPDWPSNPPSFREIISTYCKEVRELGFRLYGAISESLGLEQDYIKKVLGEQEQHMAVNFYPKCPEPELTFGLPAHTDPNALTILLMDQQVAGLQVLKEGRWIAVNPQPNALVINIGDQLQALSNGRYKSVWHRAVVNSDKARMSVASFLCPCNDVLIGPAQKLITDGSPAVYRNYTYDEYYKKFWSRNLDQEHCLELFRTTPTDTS


Experiments:
OsSAH3 = biological target: T1, OsSAH3; assay: LC-MS/MS of […],5-DHBA formation, substrate inhibition fit; assay type: biochemical; conditions: substrate inhibition constant, second site; 5-hydroxylation (2,5-DHBA product); 1 mM 2-oxoglutarate, 0.4 mM FeSO4, phosphate pH 6.8, 40 °C
OsSAH4 = biological target: T2, OsSAH4; assay: as above; assay type: biochemical; conditions: substrate inhibition constant, second site; 5-hydroxylation (2,5-DHBA product); 1 mM 2-oxoglutarate, 0.4 mM FeSO4, phosphate pH 6.8, 40 °C
DMR6 = biological target: T3, DMR6; assay: LC-MS/MS product formation relative to wild type; assay type: biochemical; conditions: 2-oxoglutarate, FeSO4, phosphate pH 6.8, 40 °C; 2,3- and 2,5-DHBA products
OsSAH2 [1] = biological target: T4, OsSAH2; assay: LC-MS/MS product formation relative to wild type; assay type: biochemical; conditions: 2-oxoglutarate, FeSO4, phosphate pH 6.8, 40 °C; 2,3- and 2,5-DHBA products
OsSAH2 [2] = biological target: T5, OsSAH2; assay: LC-MS/MS of […],5-DHBA formation, substrate inhibition fit; assay type: biochemical; conditions: substrate inhibition constant, second site; 5-hydroxylation (2,5-DHBA product); 1 mM 2-oxoglutarate, 0.4 mM FeSO4, phosphate pH 6.8, 40 °C
OsSAH1 = biological target: T6, OsSAH1; assay: as above; assay type: biochemical; conditions: substrate inhibition constant, second site; 5-hydroxylation (2,5-DHBA product); 1 mM 2-oxoglutarate, 0.4 mM FeSO4, phosphate pH 6.8, 40 °C
purified protein = substrate: O=C(O)c1ccccc1O; assay: purified protein; assay type: biochemical, Oryza sativa; conditions: 5-hydroxylation (2,5-DHBA product), 1 mM 2-oxoglutarate, 0.4 mM FeSO4, ascorbate, phosphate pH 6.8, 40 °C

Molecule | Ksi (OsSAH3) [µM] | Ksi (OsSAH4) [µM] | LC-MS/MS product formation relative to wild type (DMR6) | relative enzyme activity (OsSAH2 [1]) | Ksi (OsSAH2 [2]) [µM] | Ksi (OsSAH1) [µM] | Km (purified protein) [µM] | kcat (purified protein) [s⁻¹] | kcat/Km (purified protein) [M⁻¹ s⁻¹]
O=C(O)c1ccccc1O [SA, 2-hydroxy benzoic acid] | 365.12 ± 30.58 | 26.52 ± 10.71 | The higher activity of DMR6 than that of OsSAH2 was also supported by these parameters | OsSAH2^Y127F mutant showed a similar level of SA5H activity as that of OsSAH2 | 2.14 ± 1.86 | 27.13 ± 21.11 |  |  | 
OsSAH3 (Oryza sativa Japonica Group) (protein, recombinant from E. coli BL21 (DE3), modified pGEX vector (GST purification), 3 x Myc at C-terminus; wild type has F136, R138, I289, P292; gene on chromosome 4, tail-to-tail with OsSAH2) MAPAIAKPLLSDLVAQSGQVPSSHIRPVGDRPDLDNVDHESGAGIPVIDLKQLDGPDRRKVVEAIGSACETDGFFMVKNHGIPEEVVEGMLRVAREFFHMPESERLKCYSDDPKKAIRLSTSFNVRTEKVSNWRDFLRLHCYPLESFIDQWPSNPPSFRQVVGTYSREARALALRLLEAISESLGLERGHMVSAMGRQAQHMAVNYYPPCPQPELTYGLPGHKDPNAITLLLQDGVSGLQVQRNGRWVAVNPVPDALVINIGDQIQALSNDRYKSVLHRVIVNSESERISVPTFYCPSPDAVIAPAGALVDGALHPLAYRPFKYQAYYDEFWNMGLQSASCLDRFRPNDQAV |  |  |  |  |  |  | 197.08 ± 19.42 | 0.256 ± 0.0332 | 1290
